Paper PMC9961271, “Inhibitory Effects of a Novel μ-Opioid Receptor Nonpeptide Antagonist, UD-030, on Morphine-Induced Conditioned Place Preference” (International Journal of Molecular Sciences, 2023)
Counter-ions that a name gives are not always drawn.

Tests used:
human MOP [1] = target: T1, human MOP (Homo sapiens, UniProt P35372); test: [35S]-GTPγS binding assay, hMOP/CHO membranes; assay type: biochemical
C57BL/6J mice [2] = test: Acquisition of morphine-induced conditioned place preference; assay type: in vivo, male C57BL/6J mice; conditions: for time spent in the drug-paired compartment, preconditioning / time spent in the drug-paired compartment, postconditioning: n = 8; for morphine-induced CPP score compared with the vehicle-pretreated group: Dunnett's test
Description: (§1) For the pharmacokinetic and pharmacological studies, morphine hydrochloride (Takeda Pharma, Osaka, Japan) was dissolved and diluted in saline and administered intraperitoneally (i.p.) in a volume of 10 mL/kg body weight. […] All experiments were conducted with a dose of morphine (10 mg/kg) that is sufficient to elicit CPP.
(§2) Male Crl:CD1 (ICR) mice (Japan CLEA, Tokyo, Japan) were used at 5 weeks of age for the pharmacokinetic analysis. Male C57BL/6J mice (Japan CLEA) were used at 7 weeks of age for the behavioral analyses. The mice were housed 4–6 per cage in an environment at 23 °C ± 1 °C and 50% ± 5% humidity with free access to food and water under a 12 h/12 h light/dark cycle. All experiments were performed with approval from the Institutional Animal Care and Use Committee at the Tokyo Metropolitan Institute of Medical Science.
(§3) The CPP test was performed using a two-compartment Plexiglas chamber. […] For the preconditioning and postconditioning phases, a T-style division with double 60 mm × 60 mm openings allowed the mice to access both compartments. During the conditioning phases, the openings were eliminated to restrict the mice to one of the compartments. The CPP apparatus was placed in a sound-attenuated, light-controlled box. On day 1 (preconditioning: habituation) and day 2 (preconditioning: pretest), the mice freely explored the two compartments for 900 s, and the time spent in each compartment during the exploratory period and locomotor activity were measured using an infrared detector (Neuroscience, Osaka, Japan). We selected a counterbalanced protocol to nullify each mouse’s initial preference as discussed previously. […] Conditioning was conducted once daily for 4 consecutive days (days 3–6). The mice were injected with morphine (10.0 mg/kg, i.p.) or saline and immediately confined to the black or white compartment for 60 min on day 3. On day 4, the mice were alternately injected with saline or drug and immediately confined to the opposite compartment for 60 min. On days 5 and 6, the same conditioning as on days 3 and 4 was repeated. The assignment of the mice to the conditioned compartment was performed randomly and counterbalanced across subjects. During the postconditioning phase on day 7, the time spent in each compartment was measured for 900 s. The CPP score was designated as the time spent in the drug-paired compartment on day 7 minus the time spent in the same compartment in the preconditioning phase on day 2.
(§4) The data were analyzed using two-way repeated-measures ANOVA followed by Sidak’s multiple-comparison post hoc test, one-way ANOVA followed by Dunnett’s multiple-comparison post hoc test, or Student’s t-test using GraphPad Prism software. Values of p < 0.05 were considered statistically significant.

C57BL/6J mice [3] = test: Expression of morphine-induced conditioned place preference; assay type: in vivo, male C57BL/6J mice; conditions: for time spent in the morphine-paired compartment, preconditioning / time spent in the morphine-paired compartment, postconditioning: n = 8; for morphine-induced CPP score compared with the vehicle-treated control group: 10 mg/kg p.o. before the postconditioning phase, Dunnett's test, UD-030 p = 0.038, NTX p = 0.042; for sedative effects (number of transitions between compartments): 10 mg/kg p.o., postconditioning phase
Description: as §1, §2, §3, §4

human MOP [4] = target: T1, human MOP; test: Competitive radioligand binding assay, hMOP/CHO membranes
human DOP [5] = target: T2, human DOP (Homo sapiens, UniProt P41143); test: Competitive radioligand binding assay, hDOP/CHO membranes
human KOP [6] = target: T3, human KOP (Homo sapiens, UniProt P41145); test: Competitive radioligand binding assay, hKOP/CHO membranes
human NOP [7] = target: T4, human NOP (Homo sapiens, UniProt P41146); test: Competitive radioligand binding assay, hNOP/CHO membranes
human DOP [8] = target: T2, human DOP; test: [35S]-GTPγS binding assay, hDOP/CHO membranes; assay type: biochemical
human KOP [9] = target: T3, human KOP; test: [35S]-GTPγS binding assay, hKOP/CHO membranes; assay type: biochemical
human NOP [10] = target: T4, human NOP; test: [35S]-GTPγS binding assay, hNOP/CHO membranes; assay type: biochemical
[11] = Pharmacokinetics after a single oral administration (plasma, LC-MS/MS); conditions: male, Crl:CD1 (ICR), mouse; for concentration at 0.5 h / concentration at 1 h / concentration at 2 h / concentration at 4 h / concentration at 8 h / concentration at 24 h: in vivo; for AUC(0-t) / Cmax / Tmax: plasma; for Tmax: mice
[12] = 10 mg/kg p.o. 60 min before each morphine treatment (10 mg/kg, i.p.)
[13] = 10 mg/kg p.o. before each morphine treatment, UD-030 p < 0.001, NTX p = 0.003
[14] = 10 mg/kg p.o. 60 min before the postconditioning phase
[15] = 3 mg/kg p.o. 60 min before each morphine treatment (10 mg/kg, i.p.)

## C[C@@H](NC(=O)[C@@H](N)Cc1ccc(O)cc1)C(=O)NCC(=O)N(C)[C@@H](Cc1ccccc1)C(=O)NCCO [DAMGO, reference compound]
Human MOP [1]; hMOP/CHO, read-out: maximal effect (agonistic activity)
  Emax: > 95%

## CN1CC[C@]23c4c5ccc(O)c4O[C@H]2[C@@H](O)C=C[C@H]3[C@H]1C5 [Morphine, morphine hydrochloride]
C57BL/6J mice [2]; morphine 10 mg/kg i.p. conditioning, vehicle-pretreated control mice
  time spent in the drug-paired compartment, preconditioning: 443.1 ± 33.2 s
C57BL/6J mice [2]; morphine 10 mg/kg i.p. conditioning, vehicle-pretreated control mice, p < 0.001 vs pre
  time spent in the drug-paired compartment, postconditioning: 554.4 ± 31.8 s
C57BL/6J mice [3]; morphine 10 mg/kg i.p. conditioning, vehicle-treated control mice
  time spent in the morphine-paired compartment, preconditioning: 443.6 ± 34.4 s
C57BL/6J mice [3]; morphine 10 mg/kg i.p. conditioning, vehicle-treated control mice, p < 0.001 vs pre
  time spent in the morphine-paired compartment, postconditioning: 554.4 ± 29.7 s

## O=C1CC[C@@]2(O)[C@H]3Cc4ccc(O)c5c4[C@@]2(CCN3CC2CC2)[C@H]1O5 [NTX, naltrexone, reference compound]
C57BL/6J mice [2]; [12]
  time spent in the drug-paired compartment, postconditioning: 436.5 ± 49.7 s
  time spent in the drug-paired compartment, preconditioning: 437.0 ± 38.1 s
C57BL/6J mice [2]; [13]
  morphine-induced CPP score compared with the vehicle-pretreated group: significantly lower
C57BL/6J mice [3]; [14]
  time spent in the morphine-paired compartment, postconditioning: 474.1 ± 29.9 s
  time spent in the morphine-paired compartment, preconditioning: 441.6 ± 33.0 s
C57BL/6J mice [3]
  morphine-induced CPP score compared with the vehicle-treated control group: significantly decreased
  sedative effects (number of transitions between compartments): did not exert sedative effects

## CC[C@]1(c2cc(NS(=O)(=O)C3CC3)ccc2F)[C@@H]2CN(CC3(O)Cc4ccccc4C3)C[C@@H]21 [UD-030]
Human MOP [4]
  Ki: 0.0031 µM
Human DOP [5]
  Ki: 1.8 µM
Human KOP [6]
  Ki: 0.46 µM
Human NOP [7]
  Ki: 1.8 µM
Human MOP [1]
  EC50: > 10 µM
  IC50: 0.0017 µM
Human MOP [1]; against DAMGO
  maximal inhibitory effect: > 95%
Human MOP [1]; high concentration (10 µM)
  stimulation of [35S]-GTPγS binding: did not stimulate
Human DOP [8]
  EC50: > 10 µM
  IC50: 0.85 µM
Human DOP [8]; against DPDPE
  maximal inhibitory effect: > 95%
Human DOP [8]; high concentration (10 µM)
  stimulation of [35S]-GTPγS binding: did not stimulate
Human KOP [9]
  EC50: > 10 µM
  IC50: 0.085 µM
Human KOP [9]; against U-69593
  maximal inhibitory effect: > 95%
Human KOP [9]; high concentration (10 µM)
  stimulation of [35S]-GTPγS binding: did not stimulate
Human NOP [10]
  EC50: > 10 µM
  IC50: 0.33 µM
Human NOP [10]; against nociceptin
  maximal inhibitory effect: > 95%
Human NOP [10]; high concentration (10 µM)
  stimulation of [35S]-GTPγS binding: did not stimulate
C57BL/6J mice [2]; [15]
  time spent in the drug-paired compartment, postconditioning: 470.6 ± 16.5 s
  time spent in the drug-paired compartment, preconditioning: 445.2 ± 18.9 s
C57BL/6J mice [2]; 3 mg/kg p.o. before each morphine treatment, p = 0.023
  morphine-induced CPP score compared with the vehicle-pretreated group: significantly lower
C57BL/6J mice [2]; [12]
  time spent in the drug-paired compartment, postconditioning: 392.8 ± 42.3 s
  time spent in the drug-paired compartment, preconditioning: 434.9 ± 30.5 s
C57BL/6J mice [2]; [13]
  morphine-induced CPP score compared with the vehicle-pretreated group: significantly lower
C57BL/6J mice [3]; 3 mg/kg p.o. 60 min before the postconditioning phase
  time spent in the morphine-paired compartment, preconditioning: 466.8 ± 20.7 s
C57BL/6J mice [3]; 3 mg/kg p.o. 60 min before the postconditioning phase, p = 0.012 vs pre
  time spent in the morphine-paired compartment, postconditioning: 536.5 ± 24.8 s
C57BL/6J mice [3]; [14]
  time spent in the morphine-paired compartment, postconditioning: 492.4 ± 32.8 s
  time spent in the morphine-paired compartment, preconditioning: 461.3 ± 20.0 s
C57BL/6J mice [3]
  morphine-induced CPP score compared with the vehicle-treated control group: significantly decreased
  sedative effects (number of transitions between compartments): did not exert sedative effects
C57BL/6J mice [3]; high-dose (10 mg/kg, p.o.)
  behavioral abnormalities during the session: No other notable behavioral abnormalities
[11]; 0.5 mg/kg
  concentration at 0.5 h: 0.00109 ± 0.0004 µg/mL
  concentration at 1 h: 0.00286 ± 0.0016 µg/mL
  concentration at 2 h: 0.00296 ± 0.0003 µg/mL
  concentration at 4 h: 0.00461 ± 0.0019 µg/mL
  concentration at 8 h: 0.00495 ± 0.0009 µg/mL
  concentration at 24 h: 0.000231 µg/mL
  AUC(0-t): 0.0723 µg·h/mL
  Cmax: 0.00495 µg/mL
[11]; 1 mg/kg
  concentration at 0.5 h: 0.00476 ± 0.0019 µg/mL
  concentration at 1 h: 0.00698 ± 0.0017 µg/mL
  concentration at 2 h: 0.0149 ± 0.0009 µg/mL
  concentration at 4 h: 0.0115 ± 0.0029 µg/mL
  concentration at 8 h: 0.0109 ± 0.0021 µg/mL
  concentration at 24 h: 0.000358 µg/mL
  AUC(0-t): 0.176 µg·h/mL
  Cmax: 0.0149 µg/mL
[11]; 2 mg/kg
  concentration at 0.5 h: 0.0118 ± 0.0054 µg/mL
  concentration at 1 h: 0.0255 ± 0.0022 µg/mL
  concentration at 2 h: 0.0361 ± 0.0083 µg/mL
  concentration at 4 h: 0.0267 ± 0.0033 µg/mL
  concentration at 8 h: 0.0188 ± 0.0092 µg/mL
  concentration at 24 h: 0.00035 µg/mL
  AUC(0-t): 0.35 µg·h/mL
  Cmax: 0.0361 µg/mL
[11]; 4 mg/kg
  concentration at 0.5 h: 0.0277 ± 0.024 µg/mL
  concentration at 1 h: 0.119 ± 0.035 µg/mL
  concentration at 2 h: 0.0727 ± 0.018 µg/mL
  concentration at 4 h: 0.103 ± 0.015 µg/mL
  concentration at 8 h: 0.0694 ± 0.01 µg/mL
  concentration at 24 h: 0.000395 ± 0.0001 µg/mL
  AUC(0-t): 1.22 µg·h/mL
  Cmax: 0.119 µg/mL
[11]; 0.5 mg/kg, Tmax, 0.5 mg/kg p.o.
  Tmax: 8 h
[11]; 1 mg/kg, Tmax, 1 mg/kg p.o.
  Tmax: 2 h
[11]; 2 mg/kg, Tmax, 2 mg/kg p.o.
  Tmax: 2 h
[11]; 4 mg/kg, Tmax, 4 mg/kg p.o.
  Tmax: 1 h
[11]; 4 mg/kg, time to reach the maximum plasma concentration (Tmax), over the doses 0.5, 1, 2 and 4 mg/kg p.o.
  Tmax: 1 to 8 h
